The structures appear in SMILES notation.

Assay [1] deals with ALPK1-dependent NFκB reporter gene activation. Description: NFκB gene reporter alkaline phosphatase assay in HEK293 G9 cells. It counts as cell-based. The settings on record: Homo sapiens; HEK293 G9 cells stimulated with D-glycero-D-manno-6-fluoro-heptose-1β-S-ADP. In outline: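 HEK293 G9 cells (stable NF-κB-driven alkaline phosphatase reporter) were seeded at 10,000/well in Freestyle 293 medium and attached overnight. They were pretreated 30 min with serially diluted compound, then stimulated with D-glycero-D-manno-6-fluoro-heptose-1β-S-ADP. Reporter phosphatase was read colorimetrically with pNPP.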

The test system of assay [2] is Female MRL/MpJ-faslpr/J mice. The assay is described as follows: Efficacy study in SLE animal model. It counts as in vivo, mouse. The conditions noted are these: 50 mg/kg PO QD. The protocol:
A mouse model of systemic lupus erythematosus (SLE) was used to evaluate the ability of ALPK1 inhibitors to treat this condition. Female MRL/MpJ-faslpr/J mice were treated with test compound (T007) for 9 weeks. At about 13 weeks of age (study day 0), female mice were randomized into two treatment groups of 10 mice per group, and daily (QD) oral (PO) treatment with vehicle (5% PEG400, 95% methylcellulose [MC]) or the test compound, T007 (50 mg/kg) was initiated. The animals were euthanized for necropsy and tissue collection at age 22 weeks.

Another assay has as its system SD rat. The assay is described as follows: Efficacy study in sepsis induced acute kidney injury animal model (cecal ligation and puncture). It counts as in vivo. The settings on record: 20 mg/kg 2 hours prior to surgery, 24 hours post-surgery. From the text: Polymicrobial sepsis induced by cecal ligation and puncture (CLP) is the most frequently used model because it closely resembles the progression and characteristics of human sepsis. We used this model system to evaluate the effects of the compound T007 in sepsis. Briefly, the SD rat cecum was ligated with sterile silk thread, and then cecum was punctured twice with a needle, gently squeezed to express a small amount of fecal material, then the abdominal incision was closed. The test compound, T007 (20 mg/kg) was administered 2 hours prior to the surgery. 24 hours post-surgery, survival was recorded, plasma was collected for MCP-1 analysis, and kidneys were collected for gene expression analysis by Q-PCR.

A further assay addresses ALPK1 (Homo sapiens (Human), UniProt Q96QP1). Description: ALPK1 in vitro kinase assay (HTRF, TIFA phosphorylation). The assay is classed as biochemical. The conditions noted are these: ADP-Heptose activated ALPK1.
For another assay, the target named is hALPK1-V1092A (Homo sapiens (Human), UniProt Q96QP1, V1092A). Description: Inhibition of IL-8 secretion in HEK293 cells transiently transfected with hALPK1-V1092A. It counts as cell-based. The conditions noted are these: transient transfection, 24 hours with compound, IL-8 ELISA, relative to wild-type HEK293 cells; read-out: Half maximal inhibitory concentration (IC50) of IL-8 secretion in cells expressing V1092A mutant. The text has this: (§1) Activating mutations in ALPK1 are associated with diseases and disorders such as cancer, spiroandenoma, spiroandenocarcinoma, ROSAH syndrome, and PFAPA syndrome. We conducted further experiments to evaluate the ability of representative compounds to inhibit ALPK1 in the context of two activating mutations, T237M and V1092A. In preliminary experiments we determined that IL-8 protein secretion was elevated in cells transiently transfected with human ALPK1 expression vectors containing each of these activating mutations. Accordingly, we used IL-8 secretion as an indicator of activated ALPK1 inhibition in cells expressing these mutations.
hALPK1-V1092A, sequence (Q96QP1 whole entry V1092A): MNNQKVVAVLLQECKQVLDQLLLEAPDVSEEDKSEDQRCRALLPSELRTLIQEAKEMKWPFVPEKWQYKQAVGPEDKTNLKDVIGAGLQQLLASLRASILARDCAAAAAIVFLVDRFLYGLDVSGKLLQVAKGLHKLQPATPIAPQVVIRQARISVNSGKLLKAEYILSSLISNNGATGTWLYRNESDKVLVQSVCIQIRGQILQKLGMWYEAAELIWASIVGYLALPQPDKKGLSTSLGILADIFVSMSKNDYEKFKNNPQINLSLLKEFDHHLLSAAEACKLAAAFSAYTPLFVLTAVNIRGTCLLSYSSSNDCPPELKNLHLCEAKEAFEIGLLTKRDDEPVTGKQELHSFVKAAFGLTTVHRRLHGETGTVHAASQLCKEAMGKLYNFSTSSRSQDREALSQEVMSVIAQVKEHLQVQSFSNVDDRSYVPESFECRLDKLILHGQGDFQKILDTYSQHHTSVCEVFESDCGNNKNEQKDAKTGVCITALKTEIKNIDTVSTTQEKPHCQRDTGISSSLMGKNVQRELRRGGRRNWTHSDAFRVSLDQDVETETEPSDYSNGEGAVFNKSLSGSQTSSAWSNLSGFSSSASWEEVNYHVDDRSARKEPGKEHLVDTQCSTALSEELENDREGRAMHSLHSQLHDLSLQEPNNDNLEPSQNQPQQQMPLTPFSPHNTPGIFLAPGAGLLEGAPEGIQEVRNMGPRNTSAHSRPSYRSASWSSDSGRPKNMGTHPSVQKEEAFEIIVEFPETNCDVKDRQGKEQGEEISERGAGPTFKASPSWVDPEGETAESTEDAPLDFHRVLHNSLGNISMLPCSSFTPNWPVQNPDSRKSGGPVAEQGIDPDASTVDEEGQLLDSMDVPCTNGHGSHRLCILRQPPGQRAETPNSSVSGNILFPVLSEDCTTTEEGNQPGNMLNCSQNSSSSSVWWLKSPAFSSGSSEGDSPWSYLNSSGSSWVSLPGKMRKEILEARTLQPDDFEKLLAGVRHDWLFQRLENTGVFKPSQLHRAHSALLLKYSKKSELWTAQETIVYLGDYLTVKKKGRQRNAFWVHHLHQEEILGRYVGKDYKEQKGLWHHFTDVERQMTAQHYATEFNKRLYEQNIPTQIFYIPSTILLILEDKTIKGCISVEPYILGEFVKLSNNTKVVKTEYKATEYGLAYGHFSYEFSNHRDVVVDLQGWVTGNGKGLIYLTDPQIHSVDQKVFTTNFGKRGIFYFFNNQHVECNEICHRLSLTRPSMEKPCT
(§2) HEK293 cells were cultured as described above prior to transient transfection with either empty vector or an expression vector encoding (i) human ALPK1 (hALPK1), (ii) hALPK1 with the T237M activating mutation (hALPK1-T237M) (iii) hALPK1 with the V1092A activating mutation (hALPK1-V1092A), or (iv) a kinase dead ALPK1 mutant (hALPK1-T237M-D1194S). Transfection was performed according to manufacturer's protocols (Lipofectamine™ 3000, ThermoFisher). Transfected cells were selected, seeded onto 96-well plates and treated with serial dilutions of the test compounds for 6.5 hr. Following treatment, cell viability was determined using a luminescent cell viability assay (Cell Counting-Lite Assay or “CCL Assay” from Vazyme Biotech Co., Ltd.) and cell free supernatants were collected and analyzed for IL-8 protein by IL-8 ELISA as described above. […] As shown in the figure, very little IL-8 was detectable in cells transfected with any of the empty vector, hALPK1, or the kinase dead hALPK1 mutant. In contrast, both of the activating mutations in hALPK1 induced significant IL-8 secretion.
For the V1092A mutant study shown in Table 4, HEK293 cells were transiently transfected with hALPK1-V1092A or hALPK1 (wildtype) expression vectors and then treated with test compounds for 24 hours. Fresh medium and compound were added at 18 hours.

In the next assay the target is T237M hALPK1 mutant (Homo sapiens (Human), UniProt Q96QP1, T237M). Description: Inhibition of IL-8 secretion in HEK293 cells (A2) stably expressing T237M hALPK1 mutant. The assay is classed as cell-based. The conditions noted are these: 40 hours with compound, IL-8 ELISA, relative to wild-type HEK293 cells, read-out: Half maximal inhibitory concentration (IC50) of IL-8 secretion in cells expressing T237M mutant.
T237M hALPK1 mutant, sequence (Q96QP1 whole entry T237M): as the sequence (Q96QP1 whole entry V1092A) above, with T237M, A1092V counted along it
From the text: as §1, §2
Next, we tested a representative set of compounds for inhibition of IL-8 secretion in cells expressing each of the activating ALPK1 mutants, T237M and V1092A. […] For the T237M mutant study, we produced an HEK293 cell line (“A2”) stably expressing the T237M hALPK1 mutant. A2 cells were cultured in the presence of test compound for 40 hours total. Fresh medium and compound were added at 24 hours. Cell viability and IL-8 secretion were determined 16 hours after the second addition of compound, using the CCL assay and IL-8 ELISA as described above.
On the technique in general: ELISA stands for enzyme-linked immunosorbent assay.

[3] abbreviates: kidney histopathology (right kidneys), vs vehicle.

ALPK1, sequence (Q96QP1 whole entry): as the sequence (Q96QP1 whole entry V1092A) above, with A1092V counted along it

Turning to `C#Cc1cccc2sc(NC(=O)c3c(F)cc(N4CCNCC4)cc3F)nc12` [Compound T007, N-(4-ethynylbenzo[d]thiazol-2-yl)-2,6-difluoro-4-(piperazin-1-yl)benzamide], the IC50 in assay [1] was 470 nM; against ALPK1 it was 4 nM; on hALPK1-V1092A, 409 nM; at T237M hALPK1 mutant, 68.3 nM. In addition, the “Effects on SLE by proteinuria, serum anti-dsDNA antibody levels and kidney histopathology” value in assay [2] (age 13 to 22 weeks) was “statistically significant beneficial effects”. In addition, the “Urine protein score reduction in AUC” value in assay [2] (age 13 to 22 weeks, vs vehicle, p=0.100) is 34%. Besides, the Crescent scores reduction in assay [2] (setting [3]) was 62%. For the same molecule, the Glomerulus diameters reduction in assay [2] (setting [3]) came out at 38%. Besides, the “Protein cast scores reduction” value in assay [2] (setting [3]) turned out to be 70%. Also, in assay [2] (mouse age 21 weeks, vs vehicle), the “Urine protein scores reduction” value is recorded as 55%. In addition, in assay [2] (vs vehicle), the “Summed kidney scores reduction” value is given as 34%. For the same molecule, the Survival rate entry in the assay with SD rat was “improved the survival rate”. Further, the “Plasma MCP-1 concentration by ELISA” value in the assay on SD rat (p<0.001 vs CLP-Vehicle) is recorded as “improved”. Further, the “Kidney proinflammatory gene expression (IL6, TNFa, IL-1b, CCl2, KC) by Q-PCR” value with SD rat (p<0.05 vs CLP-Vehicle) is on record as “inhibited”.

For the origin of these results see patent publication US20240116885A1, “BENZOTHIAZOLE AND QUINOLINE DERIVATIVES AND THEIR USE” (Shanghai Yao Yuan Biotechnology Co., Ltd., priority 2020, published 2024).
